Paper PMC6445242, “Novel tetrazole and cyanamide derivatives as inhibitors of cyclooxygenase-2 enzyme: design, synthesis, anti-inflammatory evaluation, ulcerogenic liability and docking study” (Journal of Enzyme Inhibition and Medicinal Chemistry, 2017)

Assays:
[1] = tested on: carrageenan-induced paw oedema; test: Carrageenan-induced rat paw oedema; assay type: in vivo; details: 50 mg/kg oral; for %Inhibition of paw oedema, 1h / Paw thickness change mean ± SEM, 1h: 1 h after carrageenan; for Paw thickness change mean ± SEM, 1h / Paw thickness change mean ± SEM, 3h / Paw thickness change mean ± SEM, 5h: n = 4; for %Inhibition of paw oedema, 3h / Paw thickness change mean ± SEM, 3h: 3 h after carrageenan; for %Inhibition of paw oedema, 5h / Paw thickness change mean ± SEM, 5h: 5 h after carrageenan
Experimental: Female wister rats (150-200 g) were used in this study. The animals were kept at controlled conditions (temperature 23 ± 2 °C, humidity 60 ± 10%) and a 12/12-h light/dark cycle with access to food and water. All procedures relating to animal care and treatments were performed according to protocols approved by the Research Ethical Committee of Faculty of Pharmacy Beni-Suef University (2014-Beni-Suef, Egypt). The anti-inflammatory activity of the synthesised compounds was determined in vivo by […]-induced paw oedema method in rats[49]. Rats were divided into 21 groups of four animals each, and then, they were fasted overnight with free access to water before the experiment. Before any drug administration, thickness of the left hind paw of each rat was measured in millimetres. Group 1 served as a control and administered the vehicle (2.5% Tween 80).

ovine COX-1 = molecular target: T1, ovine COX-1 (Ovis aries, UniProt P05979); test: In vitro COX-1 inhibition assay (EIA kit, Cayman)
T1 sequence (P05979 25-600): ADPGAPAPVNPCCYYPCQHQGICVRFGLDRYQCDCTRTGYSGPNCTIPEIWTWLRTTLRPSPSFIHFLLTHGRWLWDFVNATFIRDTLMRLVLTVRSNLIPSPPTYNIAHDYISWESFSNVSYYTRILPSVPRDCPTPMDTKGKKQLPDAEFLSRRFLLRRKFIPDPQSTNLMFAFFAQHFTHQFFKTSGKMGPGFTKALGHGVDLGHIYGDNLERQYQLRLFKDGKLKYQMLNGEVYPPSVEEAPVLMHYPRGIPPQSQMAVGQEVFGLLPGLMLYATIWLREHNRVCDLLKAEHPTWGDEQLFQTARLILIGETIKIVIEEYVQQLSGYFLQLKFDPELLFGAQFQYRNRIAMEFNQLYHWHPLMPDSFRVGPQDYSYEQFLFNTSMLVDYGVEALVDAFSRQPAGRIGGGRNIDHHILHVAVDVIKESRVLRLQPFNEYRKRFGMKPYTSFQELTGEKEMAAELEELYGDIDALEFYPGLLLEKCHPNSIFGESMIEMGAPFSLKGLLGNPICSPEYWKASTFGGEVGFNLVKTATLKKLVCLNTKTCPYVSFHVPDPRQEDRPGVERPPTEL
Experimental: (§1) The peroxidase activity of cyclooxygenase enzyme isoforms was measured using the COX activity assay kit. The ability of the test compounds to inhibit both ovine COX-1 and COX-2 enzymes was explored in vitro using a colorimetric enzyme immunoassay (EIA) kit. The appearance of oxidised N,N,N′,N′-tetramethyl-p-phenylenediamine (TMPD) was monitored at 590 nm. The kit includes isozyme-specific inhibitors for distinguishing COX-2 activity from that of COX-1.

ovine COX-2 = molecular target: T2, ovine COX-2 (Ovis aries, UniProt P79208); test: In vitro COX-2 inhibition assay (EIA kit, Cayman); details: for IC50: IC50 COX-2, ovine COX-2, mean of two determinations; for SI, COX-2 selectivity index (COX-1 IC50/COX-2 IC50): ovine enzymes
T2 sequence (P79208 17-603): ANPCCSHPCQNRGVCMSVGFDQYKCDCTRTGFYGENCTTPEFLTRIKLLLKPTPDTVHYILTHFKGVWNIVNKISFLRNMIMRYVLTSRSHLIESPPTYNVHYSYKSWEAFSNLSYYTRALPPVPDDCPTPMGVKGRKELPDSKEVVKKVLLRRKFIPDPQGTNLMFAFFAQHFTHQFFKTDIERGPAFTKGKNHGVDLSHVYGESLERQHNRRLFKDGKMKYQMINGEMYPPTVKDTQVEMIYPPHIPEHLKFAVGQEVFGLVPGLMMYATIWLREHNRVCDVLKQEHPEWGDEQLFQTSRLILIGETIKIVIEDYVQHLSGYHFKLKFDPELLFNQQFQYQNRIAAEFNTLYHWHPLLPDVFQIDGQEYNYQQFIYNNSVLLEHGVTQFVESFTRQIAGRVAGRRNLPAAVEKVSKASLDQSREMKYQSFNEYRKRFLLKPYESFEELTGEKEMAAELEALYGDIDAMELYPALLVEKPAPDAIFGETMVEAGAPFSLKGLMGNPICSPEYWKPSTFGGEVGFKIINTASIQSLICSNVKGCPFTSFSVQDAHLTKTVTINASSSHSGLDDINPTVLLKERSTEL
Experimental: as §1

Row | SMILES | %Inhibition of paw oedema, 1h [1] [%] | Paw thickness change mean ± SEM, 1h [1] [mm] | %Inhibition of paw oedema, 3h [1] [%] | Paw thickness change mean ± SEM, 3h [1] [mm] | %Inhibition of paw oedema, 5h [1] [%] | Paw thickness change mean ± SEM, 5h [1] [mm] | melting point [°C] | IC50 (ovine COX-1) [µM] | IC50 (ovine COX-2) [µM] | SI, COX-2 selectivity index (COX-1 IC50/COX-2 IC50) (ovine COX-2)
1 | C/C(=N\Nc1ccc(S(C)(=O)=O)cc1)c1ccc(-n2cnnn2)cc1 [Compound 6a, (ZE)-1-{4-[1-(2-(4-Methanesulphonylphenyl)hydrazono)ethyl]phe-nyl}-1H-tetrazole] | 30 | 1.10 ± 0.23 | 42 | 0.98 ± 0.23 | 4 | 1.28 ± 0.08 | 258 to 260 | 9.21 | 0.38 | 24.23
2 | N#Cc1c(-c2cccnc2)cc(-c2ccc(-n3cnnn3)cc2)nc1N [Compound 4b, 6′-[4-(1H-Tetrazol-1-yl)phenyl]-2′-amino-[3,4′-bipyridine]-3′-carbonitrile] | 19 | 1.28 ± 0.10 | 9 | 1.53 ± 0.08 | 4 | 1.28 ± 0.14 | 238 to 240 | 6.11 | 0.27 | 22.62
3 | COc1ccc(/C=C/C(=O)c2ccc(-n3cnnn3)cc2)cc1OC [Compound 3a, (ZE)-1-[4-(1H-Tetrazol-1-yl)phenyl]-3-(3,4-dimethoxyphenyl)prop-2-en-1-one] | 25 | – | 9 | 1.53 ± 0.09 | – | – | 214 to 216 | 12.5 | 0.57 | 22
4 | COc1cc(/C=C/C(=O)c2ccc(-n3cnnn3)cc2)cc(OC)c1OC [Compound 3b, (ZE)-1-[4-(1H-Tetrazol-1-yl)phenyl]-3-(3,4,5-trimethoxyphenyl)prop-2-en-1-one] | 54 | 0.73 ± 0.08 | 13 | 1.45 ± 0.18 | 0 | 1.33 ± 0.08 | 215 to 217 | 6.74 | 0.24 | 28.08
5 | COc1cc(/C=C/C(=O)c2ccc(NC#N)cc2)cc(OC)c1OC [Compound 7b, (ZE)-N-{4-[3–(3,4,5-Trimethoxyphenyl)acryloyl]phenyl}cyanamide] | 32 | 1.08 ± 0.11 | 43 | 0.95 ± 0.17 | 0 | 1.33 ± 0.08 | 109 to 111 | 3.52 | 0.24 | 14.66
6 | N#Cc1c(-c2cccnc2)cc(-c2ccc(-n3cnnn3)cc2)nc1O [Compound 5b, 6′-[4-(1H-Tetrazol-1-yl)phenyl]-2′-hydroxy-[3,4′-bipyridine]-3′-carbonitrile] | 38 | 0.98 ± 0.18 | 33 | 1.13 ± 0.15 | 17 | 1.10 ± 0.15 | 287 to 289 | 12.4 | 1.14 | 10.88
7 | COc1ccc(/C=C/C(=O)c2ccc(NC#N)cc2)cc1OC [Compound 7a, (ZE)-N-{4-[3–(3,4-Dimethoxyphenyl)acryloyl]phenyl}cyanamide] | 24 | 1.20 ± 0.11 | 22 | 1.30 ± 0.15 | 0 | 1.33 ± 0.08 | 112 to 114 | 3.45 | 0.26 | 13.26
8 | C/C(=N\Nc1ccc(S(N)(=O)=O)cc1)c1ccc(-n2cnnn2)cc1 [Compound 6b] | – | 0.80 ± 0.26 | 37 | 1.05 ± 0.09 | 12 | 1.18 ± 0.13 | 255 to 257 | 12.9 | 0.51 | 25.27
9 | N#Cc1c(-c2ccccc2)cc(-c2ccc(-n3cnnn3)cc2)nc1N [Compound 4a, 6-[4-(1H-Tetrazol-1-yl)phenyl]-2-amino-4-phenylnicotinonitrile] | 51 | 0.78 ± 0.08 | 10 | 1.50 ± 0.19 | 0 | 1.33 ± 0.05 | 238 to 240 | 6.23 | 0.43 | 14.48
10 | COc1ccc(-c2cc(-c3ccc(-n4cnnn4)cc3)[nH]c(=O)c2C#N)cc1 [Compound 5c, 6-[4-(1H-Tetrazol-1-yl)phenyl]-4-(4-methoxyphenyl)-2-oxo-1,2-dihydropyridine-3-carbonitrile] | 57 | 0.68 ± 0.09 | 30 | 1.18 ± 0.11 | 14 | 1.15 ± 0.05 | > 300 | 11.2 | 0.71 | 15.81
